Holding throughout (test): biochemical
The target in test [1] is T1, NSP3 UBl1 (Severe acute respiratory syndrome coronavirus 2, UniProt P0DTC1). The format is binding, SARS‐CoV‐2.
In test [2] the target is TLN1 PTB (Homo sapiens, UniProt Q9Y490). It is filed as binding.
The target in test [3] is T2, NSP3 ADRP (Severe acute respiratory syndrome coronavirus 2, UniProt P0DTC1). It is filed as binding, SARS‐CoV‐2.
Test [4] concerns the target NSP9 (Severe acute respiratory syndrome coronavirus 2, UniProt P0DTC1). The format is binding, SARS‐CoV‐2.
The target of test [5] is T3, NSP3 SUD-M (Severe acute respiratory syndrome coronavirus 2, UniProt P0DTC1). The format is binding, SARS‐CoV‐2.
The target in test [6] is T1, NSP3 UBl1. The format is binding, SARS‐CoV‐2. This is another data set of the same source.
Test [7] has as its target T2, NSP3 ADRP. The format is binding, SARS‐CoV‐2. This is another data set of the same source.
The target of test [8] is T3, NSP3 SUD-M. It is filed as binding, SARS‐CoV‐2. This is another data set of the same source.

Where two headings read alike, the source gives them in different places. Residues, ends and D or L forms follow the SMILES beside them. *: point of attachment. FITC = O=C1OC2(c3ccc(O)cc3Oc3cc(O)ccc32)c2ccc(NC(=S)*)cc21

Chain of TLN1 PTB (Q9Y490 309-401): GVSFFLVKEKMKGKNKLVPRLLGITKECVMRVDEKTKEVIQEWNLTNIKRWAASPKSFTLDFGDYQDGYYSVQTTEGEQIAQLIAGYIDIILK

For Ac-PSDEGALLQQLYLALR-NH2 [NCOA2 D1081Q], in test [1], the IC50 worked out at 108 µM and the Kd is 24 µM. In test [2], Ac-LADLIFTDSKLYIPLE-NH2 [TPTE2 wt] had an IC50 of 15 µM and a Kd of 4.5 µM. For the compound Ac-LADLIFTDSKLYLPLE-NH2 [TPTE2_I104L], in test [2], the dissociation constant (Kd) turned out to be 4.5 µM. Ac-STYLHPLSELLTIPLD-NH2 [MBOAT1 G28T]: in test [3], inhibition was half-maximal at 311 µM (IC50) and the Kd was determined as 104 µM. In test [3], Ac-STALHPLSELLGIPLDY-NH2 [MBOAT1 Y19A] registered an IC50 of 452 µM and a dissociation constant Kd of 161 µM. In the case of `CC[C@H](C)[C@H](NC(=O)CNC(=O)[C@H](CCC(=O)O)NC(=O)[C@H](C)NC(=S)Nc1ccc2c(c1)C(=O)OC21c2ccc(O)cc2Oc2cc(O)ccc21)C(=O)N[C@@H](CC(=O)O)C(=O)N[C@H](C(=O)NCC(=O)N[C@@H](CCC(=O)O)C(=O)N[C@@H](CCSC)C(=O)N1CCC[C@H]1C(=O)N[C@@H](CO)C(=O)N[C@@H](Cc1ccc(O)cc1)C(=O)N[C@@H](CC(=O)O)C(=O)N[C@@H](CC(C)C)C(=O)N[C@H](C(=O)N[C@@H](CC(C)C)C(=O)O)C(C)C)[C@@H](C)CC`, the Kd in test [4] came out at 15.5 µM. Ac-LADLIFTDSALYIPLE-NH2 [TPTE2_K101A] came in with a Kd in test [2] of 15 µM. Ac-STYLHPLSELLGIPLD-NH2 [MBOAT1 wt]: 175 µM corresponded to half-maximal inhibition in test [3] (IC50). Regarding Ac-PSDEQALLDQLYLALR-NH2 [NCOA2 G1077Q], in test [1], the half-inhibitory concentration (IC50) came out at 98 µM and binding was characterised by a dissociation constant (Kd) of 19 µM. For “Ac-LADLIWTDSKLYIPLE-NH2 [TPTE2_92‐107 F97W]”, in test [2], the Kd amounted to 0.1 µM and the “fold higher affinity than wild‐type TPTE2_92‐107” value is recorded as 44 fold. For Ac-QFTEEDLHFVLYGVTPY-NH2 [PRDM14 wt], in test [5], the IC50 stood at 400 µM and binding was put at a Kd of 74 µM. In test [1], Ac-PSDEGALLDQLYLALR-NH2 [NCOA2 wt] came in with an IC50 of 139 µM and an equilibrium dissociation constant (Kd) of 39 µM. In test [6], `CC(C)C[C@H](NC(=O)[C@H](C)NC(=O)[C@H](CC(C)C)NC(=O)[C@H](Cc1ccc(O)cc1)NC(=O)[C@H](CC(C)C)NC(=O)[C@H](CCC(N)=O)NC(=O)[C@H](CC(=O)O)NC(=O)[C@H](CC(C)C)NC(=O)[C@H](CC(C)C)NC(=O)[C@H](C)NC(=O)CNC(=O)[C@H](CCC(=O)O)NC(=O)[C@H](CC(=O)O)NC(=O)[C@H](CO)NC(=S)Nc1ccc2c(c1)C(=O)OC21c2ccc(O)cc2Oc2cc(O)ccc21)C(=O)N[C@@H](CCCNC(=N)N)C(=O)N[C@@H](CC(N)=O)C(=O)O` ({FITC}-SDEGALLDQLYLALRN-OH) registered a dissociation constant Kd of 67 µM.

The compound `CC[C@H](C)[C@H](NC(=O)CNC(=O)[C@H](CC(C)C)NC(=O)[C@H](CC(C)C)NC(=O)[C@H](CCC(=O)O)NC(=O)[C@H](CO)NC(=O)[C@H](CC(C)C)NC(=O)[C@@H]1CCCN1C(=O)[C@H](Cc1c[nH]cn1)NC(=O)[C@H](CC(C)C)NC(=O)[C@H](Cc1ccc(O)cc1)NC(=O)[C@@H](NC(=O)[C@H](CO)NC(=O)CNC(=S)Nc1ccc2c(c1)C(=O)OC21c2ccc(O)cc2Oc2cc(O)ccc21)[C@@H](C)O)C(=O)N1CCC[C@H]1C(=O)N[C@@H](CC(C)C)C(=O)O` ({FITC}-GSTYLHPLSELLGIPL-OH) yielded a Kd in test [7] of 50.8 µM. In the case of `CC(C)C[C@H](NC(=O)[C@H](CC(=O)O)NC(=O)[C@H](CCC(=O)O)NC(=O)[C@H](CCC(=O)O)NC(=O)[C@@H](NC(=O)[C@H](Cc1ccccc1)NC(=S)Nc1ccc2c(c1)C(=O)OC21c2ccc(O)cc2Oc2cc(O)ccc21)[C@@H](C)O)C(=O)N[C@@H](Cc1c[nH]cn1)C(=O)N[C@@H](Cc1ccccc1)C(=O)N[C@H](C(=O)N[C@@H](CC(C)C)C(=O)N[C@@H](Cc1ccc(O)cc1)C(=O)NCC(=O)N[C@H](C(=O)N[C@H](C(=O)N1CCC[C@H]1C(=O)N[C@@H](CO)C(=O)O)[C@@H](C)O)C(C)C)C(C)C` ({FITC}-FTEEDLHFVLYGVTPS-OH), in test [8], the Kd is 19 µM. Consider Ac-QFTEEALHFVLYGVTPY-NH2 [PRDM14 D201A], for which, in test [5], the IC50 came out at 1050 µM and binding was characterised by a dissociation constant (Kd) of 226 µM.

For the compound Ac-QFTEEELHFVLYGVTPY-NH2 [PRDM14 D201E], in test [5], the IC50 came to 90 µM; the affinity, expressed as Kd, was 5.4 µM; the “fold increase in affinity compared to wild‐type PRDM14 peptide” value was 14 fold. In test [3], Ac-STYLHPLSELLGMPLD-NH2 [MBOAT1 I29M] came in with an IC50 of 268 µM and a dissociation constant (Kd) of 86.5 µM. In the same order, the values of Ac-STYLHPLSELLGIPFD-NH2 [MBOAT1 L31F] are 285 µM and 93 µM. Regarding “Ac-PSDEQALLQQLYLALR-NH2 [NCOA2 G1077Q D1081Q]”, in test [1], half-maximal inhibition (IC50) required 66.2 µM and binding was characterised by a dissociation constant (Kd) of 5.1 µM. Turning to Ac-QFTEENLHFVLYGVTPY-NH2 [PRDM14 D201N], in test [5], the IC50 was found to be 1430 µM and the Kd came to 313 µM.

Take Ac-STYLHPLSELFGIPLD-NH2 [MBOAT1 L27F]: in test [3], the midpoint of inhibition, the IC50, lay at 255 µM and the Kd is 82 µM. The corresponding values for Ac-STYIHPLSELLGIPLD-NH2 [MBOAT1 L20I] are 429 µM and 152 µM.

What is called IC50 is the concentration at which inhibition is half-maximal. A low value points to greater potency in that assay. The term Kd denotes the equilibrium constant for the complex coming apart. The low end stands for higher affinity, the high end for lower affinity.

The values above are taken from PMC12102759 (Protein Science : A Publication of the Protein Society, 2025).
